In patent publication US10093706B2, “Dominant positive hnRNP-E1 polypeptide compositions and methods” (Indiana University Research and Technology Corporation, priority 2017, dated 2018):

Experiments:
[1] = molecular target: T1, RNA-protein complexes of GST-hnRNP-E1 and 25-nt hnRNP-E1 mRNA cis-element (Homo sapiens, UniProt Q15365, A205V); assay: Gel-shift assay: effect of thiols, iron and deferoxamine on RNA-protein complex formation; assay type: binding; settings: fixed L-homocysteine
T1 construct: made in house; host or cells: Escherichia coli BL21
T1 sequence (Q15365 whole entry A205V, one chain of several): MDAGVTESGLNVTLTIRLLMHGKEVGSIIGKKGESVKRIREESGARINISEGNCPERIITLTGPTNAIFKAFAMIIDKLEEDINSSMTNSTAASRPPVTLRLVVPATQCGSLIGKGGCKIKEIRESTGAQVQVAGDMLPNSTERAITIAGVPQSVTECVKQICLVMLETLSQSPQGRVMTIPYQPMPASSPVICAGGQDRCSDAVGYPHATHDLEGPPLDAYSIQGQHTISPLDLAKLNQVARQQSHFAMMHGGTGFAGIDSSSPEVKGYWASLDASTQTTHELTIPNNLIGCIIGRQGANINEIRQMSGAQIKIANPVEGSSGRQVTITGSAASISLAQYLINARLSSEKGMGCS
Method: Other studies assessed the effect of iron(II) or iron(III) on homocysteine-induced RNA-protein interactions.
Studies were conducted to evaluate the effect of iron(II) (as ferrous sulfate heptahydrate) or iron(III) (as ferric chloride hexahydrate) in modulating RNA-protein interactions during gel-shift assays in either the absence or presence of 10-mM glutathione. The iron preparation, either alone or with 50-μM of deferoxamine (DFO) to define the specificity of iron(II), was incubated first with glutathione and hnRNP-E1 before addition of other components of the reaction mixture. […] The samples were analyzed by PAGE and autoradiography overnight followed by densitometric analysis of the signals representing RNA-protein complexes.

[2] = molecular target: T1, RNA-protein complexes of GST-hnRNP-E1 and 25-nt hnRNP-E1 mRNA cis-element; assay: as above; assay type: binding; settings: 100-μM thiol
[3] = molecular target: hnRNP-E1 binding to folate receptor mRNA and hnRNP-E1 mRNA cis-element (Homo sapiens, UniProt Q15365); settings: physiologically relevant thiols; cited from earlier work
Chain of hnRNP-E1 binding to folate receptor mRNA and hnRNP-E1 mRNA cis-element (Q15365 whole entry): as the sequence (Q15365 whole entry A205V, one chain of several) above, with V205A counted along it

[4] = tested on: newly synthesized [^35S]hnRNP-E1 in placental 1584-HF cells; assay: Biosynthetic rate of hnRNP-E1 after oligonucleotide transfection into placental 1584-HF cells; assay type: cell-based, human; settings: oligonucleotide transfected into placental 1584-HF cells
Source text: On the day before transfection, placental 1584-HF cells were trypsinized, counted, and plated in 6-well plates at 2×10^5 cells per well in 2.5-mL of MEM-HF medium, so that cells would be 70-80% confluent after overnight culture. Cells were then transfected with either wild-type, or scrambled DNA, or antisense DNA to 25-nt hnRNP-E1 cis-element using Lipofectamine 2000 DNA transfection reagent and the manufacturer's protocol. One well of cells was trypsinized and harvested on day-3 (2 days after transfection) as a control. Cells in the remaining 5 wells were starved of cysteine using cysteine-free MEM-HF for 4-h following which the rate of biosynthesis of hnRNP-E1 protein was determined in transfected cells by specifically immunoprecipitating and quantifying newly synthesized [^35S]hnRNP-E1.

hnRNP-E1 mRNA = assay: In vitro translation of hnRNP-E1; assay type: biochemical, human; settings: agent added to translation mixture (4.1-mM ß-ME)
Method: In vitro transcription-translation was carried out using the Linked SP6/T7 In Vitro Transcription/Translation Kit (Roche Applied Science) after addition of one of various targeted DNAs—pSPT18-25-hnRNP-E1 DNA, or Pst1-linearized plasmid pSPT18-folate receptor-α, or HPV16 L2 DNA, (0.5 μg/reaction)—to the transcription mix as described. In other experiments, the capacity for perturbing the interaction of hnRNP-E1 with the 25-nt hnRNP-E1 cis-element during in vitro translation was assessed in the presence of either scrambled oligonucleotides (5′-[…]-3′ SEQ ID NO:20) or specific antisense oligonucleotides (5′-[…]-3′ SEQ ID NO:21) generated against the 25-nt hnRNP-E1 mRNA cis-element (GenScript USA, Piscataway, N.J.).

| RNA-protein signals relative to L-homocysteine [2] | Compound | hnRNP-E1 activation and mRNA-binding [3] | other results |
| --- | --- | --- | --- |
| – | O.O.O.O.O.O.[Cl-].[Cl-].[Cl-].[Fe+3] [iron(III), ferric chloride hexahydrate] | – | effect on RNA-complex formation ([1]; 10-mM glutathione): comparable dose-dependent reduction in RNA-complex formation; effect on formation of RNA-protein complexes ([1]; no glutathione): no such influence |
| much stronger RNA-protein signals | OCCS [ß-ME, ß-mercaptoethanol] | – | – |
| far weaker | N[C@@H](CS)C(=O)O [L-Cysteine, L-cysteine] | far less | – |
| – | NC(CCS)C(=O)O (racemic) [DL-homocysteine] | far less | – |
| – | Antisense: antisense oligonucleotides (5′-GGG AGC GAG CGG GCG GGA G-3′ SEQ ID NO:21) against the 25-nt hnRNP-E1 mRNA cis-element (antisense GGGAGCGAGCGGGCGGGAG; chemistry not given here) | – | [^35S]cysteine-hnRNP-E1 protein [4]: 0.62 ± 0.02 b fmol/mg protein/h; [^35S]cysteine-hnRNP-E1 protein ([4]; listed as antisense oligonucleotides): 0.62 fmol/mg protein/h; effect on in vitro translation of hnRNP-E1 (hnRNP-E1 mRNA): dose-dependent inhibition of translation of hnRNP-E1 |
| no detectable signals | CSCC[C@H](N)C(=O)O [methionine] | did not have any effect | – |
| no detectable signals | N[C@@H](CCC(=O)N[C@@H](CS)C(=O)NCC(=O)O)C(=O)O [glutathione] | far less | – |
| – | N[C@H](CCS)C(=O)O [D-homocysteine] | did not have any effect | – |
| – | Scrambled: scrambled oligonucleotides (5′-GCGTCGCTCGCTTCGCACGTGCGCC-3′ SEQ ID NO:20) (GCGTCGCTCGCTTCGCACGTGCGCC; chemistry not given here) | – | [^35S]cysteine-hnRNP-E1 protein [4]: 1.01 ± 0.03 a fmol/mg protein/h; [^35S]cysteine-hnRNP-E1 protein ([4]; listed as scrambled-oligonucleotides): 1.0 fmol/mg protein/h; effect on in vitro translation of hnRNP-E1 (hnRNP-E1 mRNA): failed to quench the translation of hnRNP-E1 |
| – | NC1CCSC1=O (stereo not shown) [homocysteine thiolactone] | far less | – |
| much stronger RNA-protein signals | O[C@H](CS)[C@H](O)CS (racemic) [dithiothreitol] | – | – |
